Experimental data reported in paper PMC8899820, “Pharmacokinetics, Tissue Distribution, and Excretion Characteristics of a Radix Polygoni Multiflori Extract in Rats” (Frontiers in Pharmacology, 2022).
Where two headings read alike, the source gives them in different places.

What was measured:
[1] = Dose-exposure relationship (power function model with confidence interval method)
Method: (§1) The pharmacokinetic parameters, including the area under the plasma concentration-time curve from time zero to time t (AUC0-t) to time infinity (AUC0-∞), the time to reach the maximum plasma concentration (T max), the elimination half-time (t 1/2), and the maximum plasma concentration (C max), were calculated using the pharmacokinetic software Phoenix® WinNonlin®, version 7.0 (Scientific Consulting Inc., Apex, NC, United States). Data are expressed as the mean ± standard deviation (SD) for each group. The dose-exposure relationship was evaluated by the power function model combined with the confidence interval method ([Smith et al., 2000]; [Sethuraman et al., 2007]; [Hummel et al., 2009]). First, the administration dose, AUC0-∞ and C max were logarithmically transformed, and then a linear regression was performed to obtain the curve correlation coefficient (R^2), slope and 90% confidence interval (90% CI).

[2] = Excretion into urine and feces and mass balance after oral RPM extract; details: for dose excreted: Sprague-Dawley, rat, po; for cumulative excretion into urine / detection in urine: rat urine
Method: (§2) For the excretion study, the rats were housed singly in metabolic cages with urine collection tubes kept at 4 °C during sample collection. Urine and fecal samples were collected at time intervals of 0–4, 4–8, 8–24, 24–32, and 32–48 h after a single dose of RPM extract at 18 g/kg and then weighed. Another six rats were anesthetized with pentobarbital, fixed in the supine position and subjected to bile duct drainage surgery, and the abdominal wound was sutured. Blank bile samples were collected before the administration of RPM. The rats were weighed, and the state of the rats was observed. Subsequently, they were orally administered 18 g/kg RPM extract. The bile samples were collected at time intervals of 0–1, 1–2, 2–4, 4–6, 6–8, 8–24, 24–32 and 32–48 h. The urine, feces, and bile samples were stored at −70°C until use.
(§3) Samples were prepared using the protein precipitation process. […] After vortex shaking for 5 min and centrifugation at 14,000 g for 5 min, 150 μL of the organic layer was transferred to a clean tube and evaporated to dryness at 25°C under a stream of nitrogen. The residue was reconstituted in 50 μL of the initial mobile phase and subjected to another round of centrifugation at 14,000 g for 5 min, and 5 μL of the supernatant was injected for LC–MS/MS analysis. […] Urine and bile samples were centrifuged at 4°C and 12,000 × g for 15 min. Fecal samples were homogenized in 0.9% saline and then centrifuged at 4°C and 12,000 × g for 15 min to gather the fecal homogenates. Tissue homogenate, urine, bile and fecal samples were subjected to a similar process as the rat plasma samples.
(§4) For the excretion study, 6 rats were placed in metabolic cage after orally administered with 18 g/kg RPM extract, and urine, feces samples were collected at time intervals of 0–4, 4–8, 8–24, 24–32, 32–48, 48–60, and 60–72 h. Another 6 rats were anesthetized with pentobarbital, fixed in the supine position and performed bile duct drainage operation, and the abdominal wound was sutured. […] Subsequently, they were orally administered with 18 g/kg RPM extract. The bile samples were collected at time intervals of 0–1, 1–2, 2–4, 4–6, 6–8, 8–24, 24–32 and 32–48 h. The urine, feces, and bile samples were stored at −70 °C until use.

[3] = Biliary excretion in bile duct drained rats after oral RPM extract; details: single p.o. RPM extract 18 g/kg, rat bile
Method: as §2, §3, §4

[4] = Plasma pharmacokinetics of RPM constituents after oral RPM extract; details: for time at which C max was exhibited: RPM extract p.o.; for plasma concentrations: RPM extract 6, 18 and 36 g/kg p.o.
From the text: For the pharmacokinetic (PK) study, three groups (n = 6 each) of rats were orally administered RPM extract (6, 18, and 36 g/kg). In the plasma pharmacokinetics experiment, doses were 6, 18, and 36 g/kg for the single administration group and 18 g/kg for the continuous administration group. The doses were set at a subtoxic level ([Zhang et al., 2013]; [Wang et al., 2015]) to investigate the pharmacokinetic profiles of the constituents of RPM (36 g/kg group) and were approximately 60 times the upper dose (6 g/day) for humans recommended by the 2020 edition of Chinese Pharmacopoeia ([Chinese Pharmacopoeia Commission, 2020]), which was converted to a dose for rats based on body surface area conversion ([Reagan-Shaw et al., 2008]). In addition, the low and medium doses decreased in a certain proportion. Serial blood samples (∼120 μL; before dosing and at 5, 15, and 30 min, and 1, 2, 4, 6, 8, 12, and 24 h after administration) were collected in heparinized tubes from the orbital sinus under light isoflurane. The blood samples were centrifuged at 12000 g for 2 min, and the plasma fractions were decanted and frozen at −70°C until analysis.
Samples were prepared using the protein precipitation process. Rat plasma (50 μL) spiked with 10 μL of IS (puerarin 100 ng/ml) was extracted with 150 μL acetonitrile. After vortex shaking for 5 min and centrifugation at 14,000 g for 5 min, 150 μL of the organic layer was transferred to a clean tube and evaporated to dryness at 25°C under a stream of nitrogen. The residue was reconstituted in 50 μL of the initial mobile phase and subjected to another round of centrifugation at 14,000 g for 5 min, and 5 μL of the supernatant was injected for LC–MS/MS analysis.
The analysis was performed on an AB Sciex API 5500 Q Trap mass spectrometer (Toronto, Canada), interfaced with a Waters Acquity UPLC separation module.
as §1

[5] = RPM extract 36 g/kg p.o., rat plasma, Mean ± SD, n = 6; ref Cheng et al., 2020; cited from earlier work
[6] = Tissue distribution of RPM constituents after oral RPM extract; details: Sprague-Dawley, rat, po, 18 g/kg
Method: For the tissue distribution study, 18 rats were randomly divided into three groups (n = 6, each) and orally administered 18 g/kg RPM extract. The rats under isoflurane anesthesia were sacrificed by bleeding from the abdominal aorta at 5, 15, and 60 min (six rats per time point) after gavage with 18 g/kg RPM extract. Subsequently, the heart, liver, spleen, lung, kidney, brain, stomach, small intestine, bladder, and gonads (testes of male rats, and uterus and ovaries of female rats) were immediately collected. An accurately weighed amount of fresh tissue sample (0.25 g) was individually homogenized with normal saline (1 ml) and transferred (50 μL) as a tissue homogenate to 1.5 ml centrifuge tubes for use as the tissue samples. All tissue samples were stored at −70°C until analysis.
Samples were prepared using the protein precipitation process. […] The tissue samples were homogenized in four parts of ice-cold 0.9% saline solution and then centrifuged at 4°C and 12,000 × g for 10 min to obtain tissue homogenates. […] Tissue homogenate, urine, bile and fecal samples were subjected to a similar process as the rat plasma samples.
For the tissue distribution study, 18 rats were randomly divided into three groups (n=6, each), and orally administered with 18 g/kg RPM extract. The rats were sacrificed at 5, 15, 60 min after orally administering RPM. Subsequently, the heart, liver, spleen, lung, kidney, brain, stomach, small intestine, bladder, gonad (testes of male rats, uterus and ovaries of female rats) were immediately collected. An accurately weighed amount of fresh tissue sample (0.25 g) was individually homogenized with normal saline (1 mL) and transferred (50 μL) as a tissue homogenate to 1.5 mL centrifuge tubes for use as the tissue samples.

[7] = AUC0-∞ vs p.o. dose of RPM extract, critical interval 0.88–1.12
[8] = C max vs p.o. dose of RPM extract, critical interval 0.80–1.20
[9] = log AUC0-∞ vs log p.o. dose of RPM extract, critical interval 0.88–1.12
[10] = log C max vs log p.o. dose of RPM extract, critical interval 0.80–1.20
[11] = feces, Recovery in feces (%), mass balance, 18 g/kg RPM extract p.o., feces collected 0–72 h
[12] = urine, Recovery in urine (%), mass balance, 18 g/kg RPM extract p.o., urine collected 0–72 h
[13] = single p.o. RPM extract 18 g/kg, rat feces
[14] = single p.o. RPM extract 18 g/kg
[15] = Sprague-Dawley, rat, plasma, po, 6 g/kg
[16] = Sprague-Dawley, rat, plasma, po, 18 g/kg
[17] = both, bladder, AUC0-t in bladder, rat tissue: bladder, 18 g/kg RPM extract p.o., tissues collected at 5, 15, 60 min
[18] = both, heart, AUC0-t in heart, rat tissue: heart, 18 g/kg RPM extract p.o., tissues collected at 5, 15, 60 min
[19] = both, intestine, AUC0-t in intestine, rat tissue: intestine, 18 g/kg RPM extract p.o., tissues collected at 5, 15, 60 min
[20] = both, kidney, AUC0-t in kidney, rat tissue: kidney, 18 g/kg RPM extract p.o., tissues collected at 5, 15, 60 min
[21] = both, liver, AUC0-t in liver, rat tissue: liver, 18 g/kg RPM extract p.o., tissues collected at 5, 15, 60 min
[22] = both, lung, AUC0-t in lung, rat tissue: lung, 18 g/kg RPM extract p.o., tissues collected at 5, 15, 60 min
[23] = both, spleen, AUC0-t in spleen, rat tissue: spleen, 18 g/kg RPM extract p.o., tissues collected at 5, 15, 60 min
[24] = both, stomach, AUC0-t in stomach, rat tissue: stomach, 18 g/kg RPM extract p.o., tissues collected at 5, 15, 60 min
[25] = female, uterus, AUC0-t in uterus, rat tissue: uterus, 18 g/kg RPM extract p.o., tissues collected at 5, 15, 60 min
[26] = urine and feces, recovery from the urine and feces, single p.o. RPM extract 18 g/kg, rats
[27] = female, ovary, AUC0-t in ovary, rat tissue: ovary, 18 g/kg RPM extract p.o., tissues collected at 5, 15, 60 min

SMILES	Conclusion (dose-exposure relationship) [1, 7]	Conclusion (dose-exposure relationship) [1, 8]	Slope (90%CI) [1, 9]	Slope (90%CI) [1, 10]	cumulative excretion into feces [2, 13]	cumulative excretion into bile [3]	AUC(0-inf) [4, 15]	AUC(0-t) [4, 15]	Cmax [4, 15]	MRT inf [4, 15]	Tmax [4, 15]	half-life [4, 15]	AUC(0-inf) [4, 16]	AUC(0-t) [4, 16]	Cmax [4, 16]	MRT inf [4, 16]	AUC0-∞ [5]	AUC(0-t) [5]	Cmax [5]	Tmax [4, 16]	also measured
O=C1c2cccc(O)c2C(=O)c2c(O)cc(CO)cc21 [Aloe-emodin, aloe-emodin]	Uncertainty of linear relationship	Uncertainty of linear relationship	0.582 (0.278–0.885)	1.07 (0.795–1.35)	43.7 ± 6.18 nmol	61.1 ± 8.66 nmol	0.0124 ± 0.007 µM·h	0.00832 ± 0.00416 µM·h	8.25 ± 7.47 nM	9.61 ± 8.77 h	0.29 ± 0.1 h	8.46 ± 7.14 h	0.0324 ± 0.0144 µM·h	0.0254 ± 0.0097 µM·h	31.7 ± 3.03 nM	4.65 ± 3.53 h	0.0313 ± 0.0127 µM·h	0.027 ± 0.012 µM·h	42 ± 11.5 nM		dose excreted [2, 11]: 21.7%; dose excreted ([2]; urine and feces, Recovery in urine and feces (%), mass balance, 18 g/kg RPM extract p.o., urine plus feces, 0–72 h): 31.4%; dose excreted [2, 12]: 9.69%; cumulative excretion into urine [2, 14]: 19.3 ± 5.44 nmol; time at which C max was exhibited ([4]; rat plasma): ≤ 20 min; half-life [4, 16]: 5.09 ± 3.38 h; AUC(0-t) ([6]; both, brain): 0.00106 µM·h; AUC(0-t) ([6]; both, heart): 0.0169 µM·h; AUC(0-t) ([6]; both, intestine): 0.00733 µM·h; AUC(0-t) ([6]; both, kidney): 0.00977 µM·h; AUC(0-t) ([6]; both, liver): 0.0555 µM·h; AUC(0-t) ([6]; both, lung): 0.0313 µM·h; AUC(0-t) ([6]; both, spleen): 0.0525 µM·h; AUC(0-t) ([6]; both, stomach): 0.0238 µM·h; AUC(0-t) ([6]; female, ovary): 0.00666 µM·h
Cc1cc(O)c2c(c1)C(=O)c1cccc(O[C@@H]3O[C@H](CO)[C@@H](O)[C@H](O)[C@H]3O)c1C2=O [CG, chrysophanol-8-O-β-D-glucoside]																					plasma concentrations ([4]; rat plasma): too low to be detected
Cc1cc(O)c2c(c1)C(=O)c1cccc(O)c1C2=O [Chrysophanol]	Nonlinear correlation	Nonlinear correlation	–0.667 (–1.14 to –0.193)	–0.158 (-0.337–0.021)			0.34 ± 0.195 µM·h	0.0748 ± 0.0589 µM·h	9.36 ± 3.26 nM	40.3 ± 23.3 h	1.03 ± 0.96 h	26.3 ± 14.4 h		0.0198 ± 0.00941 µM·h	7.87 ± 2.19 nM		0.0404 ± 0.00736 µM·h	0.0169 ± 0.00647 µM·h	7.48 ± 2.21 nM	3.51 ± 3.06 h	AUC(0-t) [6, 17]: 0.0376 µM·h; AUC(0-t) [6, 18]: 0.0311 µM·h; AUC(0-t) [6, 19]: 0.0277 µM·h; AUC(0-t) [6, 20]: 0.0132 µM·h; AUC(0-t) [6, 21]: 0.0273 µM·h; AUC(0-t) [6, 22]: 0.0476 µM·h; AUC(0-t) [6, 23]: 0.0503 µM·h; AUC(0-t) ([6]; both, spleen, AUC0-t in the spleen, RPM extract 18 g/kg p.o., rat spleen, sampling 5, 15, 60 min): 0.0503 µM·h; AUC(0-t) [6, 24]: 0.0345 µM·h; AUC(0-t) [6, 25]: 0.029 µM·h
COc1cc(O[C@@H]2O[C@H](CO)[C@@H](O)[C@H](O)[C@H]2O)c2c(c1)C(=O)c1cc(C)cc(O)c1C2=O [PG, physcion-8-O-β-D-glucoside]	Nonlinear correlation	Nonlinear correlation	0.429 (0.326–0.532)	0.524 (0.396–0.652)	13.6 ± 1.12 nmol	18.2 ± 3.29 nmol	0.0919 ± 0.0145 µM·h	0.0777 ± 0.00612 µM·h	16.8 ± 4.1 nM	7.55 ± 1.48 h	0.29 ± 0.1 h	4.83 ± 0.99 h	0.192 ± 0.0126 µM·h	0.176 ± 0.0168 µM·h	34.2 ± 4.59 nM	9.64 ± 2.05 h	0.188 ± 0.0186 µM·h	0.178 ± 0.0201 µM·h	42.1 ± 10.9 nM	0.26 ± 0.13 h	dose excreted [2, 11]: 11.6%; dose excreted [2, 26]: 16.4%; dose excreted [2, 12]: 4.83%; cumulative excretion into urine [2, 14]: 5.53 ± 2.08 nmol; time at which C max was exhibited ([4]; rat plasma): ≤ 20 min; half-life [4, 16]: 7.09 ± 2.12 h; MRT0-∞ [5]: 8.58 ± 1.72 h; t 1/2 [5]: 6.13 ± 1.06 h; AUC(0-t) [6, 17]: 0.205 µM·h; AUC(0-t) ([6]; both, brain, AUC0-t in brain, rat tissue: brain, 18 g/kg RPM extract p.o., tissues collected at 5, 15, 60 min): 0.125 µM·h; AUC(0-t) [6, 18]: 1.64 µM·h; AUC(0-t) [6, 19]: 0.692 µM·h; AUC(0-t) [6, 20]: 3.21 µM·h; AUC(0-t) [6, 21]: 3.38 µM·h; AUC(0-t) [6, 22]: 0.842 µM·h; AUC(0-t) [6, 23]: 2.69 µM·h; AUC(0-t) [6, 24]: 1.29 µM·h; AUC(0-t) [6, 27]: 0.614 µM·h; AUC(0-t) [6, 25]: 0.735 µM·h; AUC(0-t) ([6]; male, testis, AUC0-t in testis, rat tissue: testis, 18 g/kg RPM extract p.o., tissues collected at 5, 15, 60 min): 0.0806 µM·h
COc1cc(O)cc2c1C(=O)c1c(O)cc(CO)cc1C2=O [Questinol, questinol]	Nonlinear correlation	Uncertainty of linear relationship	0.551 (0.275–0.827)	0.774 (0.610–0.938)	0.566 ± 0.0666 nmol		0.027 ± 0.0228 µM·h	0.00861 ± 0.00169 µM·h	1.09 ± 0.317 nM	12.2 ± 2.93 h	3.5 ± 2.17 h	8 ± 2.01 h	0.0583 ± 0.0143 µM·h	0.0401 ± 0.00898 µM·h	3.54 ± 0.652 nM	20.6 ± 13.5 h	0.0575 ± 0.00945 µM·h	0.0473 ± 0.00685 µM·h	4 ± 0.673 nM	1.83 ± 1.8 h	dose excreted [2, 26]: 4.12%; detection in urine [2, 14]: not have been detected; detection in bile [3]: not detected; half-life [4, 16]: 14.4 ± 9.99 h; MRT0-∞ [5]: 13.6 ± 4.21 h; T max [5]: 4.38 ± 4.03 h; t 1/2 [5]: 8.90 ± 2.70 h; AUC(0-t) [6, 17]: 0.0169 µM·h; AUC(0-t) [6, 18]: 0.034 µM·h; AUC(0-t) [6, 20]: 0.0243 µM·h; AUC(0-t) [6, 21]: 0.0553 µM·h; AUC(0-t) [6, 22]: 0.0251 µM·h; AUC(0-t) [6, 23]: 0.0103 µM·h; AUC(0-t) [6, 24]: 0.0061 µM·h; AUC(0-t) [6, 27]: 0.0168 µM·h; AUC(0-t) [6, 25]: 0.0186 µM·h
O=C(O)c1cc(O)c2c(c1)C(=O)c1cccc(O)c1C2=O [Rhein, rhein]		Nonlinear correlation		0.034 (-0.482–0.550)		45.0 ± 8.41 nmol								0.00426 ± 0.00299 µM·h			0.00814 ± 0.00178 µM·h	0.00391 ± 0.00223 µM·h	3.74 ± 0.84 nM	0.42 ± 0.14 h	detection in feces [2, 13]: not detected; detection in urine [2, 14]: not detected; Cmax ([4]; RPM extract 18 g/kg p.o., rat plasma, Mean ± SD, n = 6): 3.72 ± 1.25 nM; plasma concentration ([4]; rats dosed with 6 g/kg RPM, plasma): could not be detected
COc1cc(O)cc2c1C(=O)c1c(O)cc(C)cc1C2=O [questin]																					plasma concentrations ([4]; rat plasma): too low to be detected
